# Target: T1, human HAQ STING isoform (hSTING HAQ) (Homo sapiens, UniProt Q86WV6, G230A/H232R/R293Q/R71H)
# T1 construct: THP1 cells express the naturally occurring human HAQ STING isoform (hSTING HAQ); host or cells: THP1
# Assay: IFN-β mRNA level in THP1 cells (qPCR, STING agonist cellular activity)
# Format: cell-based
# Conditions: compound at 3.6 μM, 2 hrs, IFNβ expression normalized against GAPDH by the 2^-ΔΔCT method, DMSO = 1.0
# Experimental: Cellular activity of STING agonists was determined by mRNA levels of IFN-β in THP1 (Otwo Biotech HTX1621) cell line. THP1 cells express the naturally occurring human HAQ STING isoform (hSTING HAQ), which responses to the activation of STING agonists.
# THP1 cells were seeded into Falcon 12-well cell Culture Plate (Corning #353043) at 9×10^5 cells per well, in 1 ml complete culture medium (RPMI-1640, GIBCO #C1187500BT) containing 10% heat inactivated FBS (GIBCO #10099141C), 1% Pen-Strep (HyClone SV30010) and incubated at 37° ΔC, 5% CO2 overnight. On day 2, compound (final concentration at 3.6 μM) or DMSO (0.1%, Sigma Aldrich #8418) was added to THP1 cells and further incubated for 2 hrs min at 37° ΔC, 5% CO2. Cells were then collected for RNA extraction.
# Total RNA was extracted with TRIzol reagent (Invitrogen #15596026) and […] was used to synthesize first-strand cDNA with Maxima First Strand cDNA Synthesis Kit (TAKARA #RR036A). Quantitative PCR was performed with Maxima SYBR Green qPCR Master Mix (ABI #4367659, USA). The primer sequences used were as follows: GAPDH (5′-[…]-3′, 5′-[…]-3′). INFP3 (5′-[…]-3′,5′-[…]-3′) Real-time PCR was performed on QuantStudio™ 5 Real-Time PCR System (Thermo Fisher). Relative expression levels of IFNβ gene were normalized against the level of GAPDH expression by the 2^−ΔΔCT method. Each PCR reaction was performed in triplicates.
# T1 sequence (Q86WV6 whole entry R71H/G230A/H232R/R293Q, canonical isoform): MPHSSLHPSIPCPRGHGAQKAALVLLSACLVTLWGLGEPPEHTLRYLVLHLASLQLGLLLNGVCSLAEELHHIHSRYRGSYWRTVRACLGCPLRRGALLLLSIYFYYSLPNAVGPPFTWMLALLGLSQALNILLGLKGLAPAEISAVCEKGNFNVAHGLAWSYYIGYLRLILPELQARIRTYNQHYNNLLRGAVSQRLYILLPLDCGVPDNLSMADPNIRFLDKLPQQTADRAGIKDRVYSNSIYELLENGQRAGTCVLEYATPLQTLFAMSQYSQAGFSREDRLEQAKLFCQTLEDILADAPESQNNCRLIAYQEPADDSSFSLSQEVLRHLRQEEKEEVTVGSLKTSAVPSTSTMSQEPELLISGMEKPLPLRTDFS
row,SMILES,Relative mRNA INFβ/GAPDH THP 1
1,"COc1cc(CN(Cc2cn3c4c(c(N5CCC(O)CC5)c(F)cc4c2=O)OCC3C)[C@H]2CCCN(c3ccc(N)nc3)C2)ccn1 (stereo partly drawn) [Compound 31, 6-((((S)-1-(6-aminopyridin-3-yl)piperidin-3-yl)((2-methoxypyridin-4-yl)methyl)amino)methyl)-9-fluoro-10-(4-hydroxypiperidin-1-yl)-3-methyl-2H-[1,4]oxazino[2,3,4-ij]quinolin-7(3H)-one]",1162.4
2,"Cc1ccc(N2CCC[C@H](N(Cc3ccnc(C)c3)Cc3cn4c5c(c(O)c(F)cc5c3=O)OCC4C)C2)cn1 (stereo partly drawn) [Compound 102, 9-fluoro-10-hydroxy-3-methyl-6-((((S)-1-(6-methylpyridin-3-yl)piperidin-3-yl)((2-methylpyridin-4-yl)methyl)amino)methyl)-2,3-dihydro-7H-[1,4]oxazino[2,3,4-ij]quinolin-7-one]",0.9
3,"Cc1cc(CN(Cc2cn3c4c(c(F)c(F)cc4c2=O)SCC3)[C@H]2CCCN(c3cnccn3)C2)ccn1 [Compound 97, (S)-9,10-difluoro-6-((((2-methylpyridin-4-yl)methyl)(1-(pyrazin-2-yl)piperidin-3-yl)amino)methyl)-2,3-dihydro-7H-[1,4]thiazino[2,3,4-ij]quinolin-7-one]",1.0
4,"COc1cc(CN(Cc2cn3c4c(c(C5=CCSCC5)c(F)cc4c2=O)OCC3C)[C@H]2CCCN(c3ccc(N)nc3)C2)ccn1 (stereo partly drawn) [Compound 58, 6-((((S)-1-(6-aminopyridin-3-yl)piperidin-3-yl)((2-methoxypyridin-4-yl)methyl)amino)methyl)-10-(3,6-dihydro-2H-thiopyran-4-yl)-9-fluoro-3-methyl-2H-[1,4]oxazino[2,3,4-ij]quinolin-7(3H)-one]",688.4
5,"Nc1ccc(N2CCC[C@H](N(Cc3ccccc3F)Cc3cn4c5c(c(F)c(F)cc5c3=O)OCC4)C2)cn1 [Compound 77, (S)-6-(((1-(6-aminopyridin-3-yl)piperidin-3-yl)(2-fluorobenzyl)amino)methyl)-9,10-difluoro-2,3-dihydro-7H-[1,4]oxazino[2,3,4-ij]quinolin-7-one]",1.3
6,"COc1cc(CN(Cc2cn3c4c(c(N5CCCCC5=O)c(F)cc4c2=O)OCC3C)[C@H]2CCCN(c3ccc(N)nc3)C2)ccn1 (stereo partly drawn) [Compound 61, 6-((((S)-1-(6-aminopyridin-3-yl)piperidin-3-yl)((2-methoxypyridin-4-yl)methyl)amino)methyl)-9-fluoro-3-methyl-10-(2-oxopiperidin-1-yl)-2H-[1,4]oxazino[2,3,4-ij]quinolin-7(3H)-one]",0.7
7,"COc1cc(CN(Cc2cn3c4c(c(N5CCNCC5C)c(F)cc4c2=O)OCC3C)[C@H]2CCCN(c3ccc(N)nc3)C2)ccn1 (stereo partly drawn) [Compound 41, 6-((((S)-1-(6-aminopyridin-3-yl)piperidin-3-yl)((2-methoxypyridin-4-yl)methyl)amino)methyl)-9-fluoro-3-methyl-10-(2-methylpiperazin-1-yl)-2H-[1,4]oxazino[2,3,4-ij]quinolin-7(3H)-one]",1.2
8,"COc1cc(CN(Cc2cn3c4c(c(N(C)C5CCCNC5)c(F)cc4c2=O)OCC3C)[C@H]2CCCN(c3ccc(N)nc3)C2)ccn1.Cl (stereo partly drawn) [Compound 43, 6-((((S)-1-(6-aminopyridin-3-yl)piperidin-3-yl)((2-methoxypyridin-4-yl)methyl)amino)methyl)-9-fluoro-3-methyl-10-(methyl(piperidin-3-yl)amino)-2H-[1,4]oxazino[2,3,4-ij]quinolin-7(3H)-one Hydrochloride]",1.2
9,"COc1cc(CN(Cc2cn3c4c(c(F)c(F)cc4c2=O)OCC3C)[C@H]2CCCN(c3cnc4[nH]ncc4c3)C2)ccn1 (stereo partly drawn) [Compound 54, 6-((((S)-1-(1H-pyrazolo[3,4-b]pyridin-5-yl)piperidin-3-yl)((2-methoxypyridin-4-yl)methyl)amino)methyl)-9,10-difluoro-3-methyl-2H-[1,4]oxazino[2,3,4-ij]quinolin-7(3H)-one]",3.9
10,"CC1COc2c(F)c(F)cc3c(=O)c(CN(Cc4ccncc4)[C@H]4CCCN(c5ccc(N)nc5)C4)cn1c23 (stereo partly drawn) [Compound 2, 6-((((S)-1-(6-aminopyridin-3-yl)piperidin-3-yl)(pyridin-4-ylmethyl)amino)methyl)-9,10-difluoro-3-methyl-2H-[1,4]oxazino[2,3,4-ij]quinolin-7(3H)-one]",1261.9
11,"CCN1CCN(c2c(F)cc3c(=O)c(CN(Cc4ccnc(OC)c4)[C@H]4CCCN(c5ccc(N)nc5)C4)cn4c3c2OCC4)CC1 [Compound 93, (S)-6-(((1-(6-aminopyridin-3-yl)piperidin-3-yl)((2-methoxypyridin-4-yl)methyl)amino)methyl)-10-(4-ethylpiperazin-1-yl)-9-fluoro-2,3-dihydro-7H-[1,4]oxazino[2,3,4-ij]quinolin-7-one]",411.3
12,"CNC1CCCN(c2c(F)cc3c(=O)c(CN(Cc4ccnc(OC)c4)[C@H]4CCCN(c5ccc(N)nc5)C4)cn4c3c2OCC4C)C1.Cl (stereo partly drawn) [Compound 42, 6-((((S)-1-(6-aminopyridin-3-yl)piperidin-3-yl)((2-methoxypyridin-4-yl)methyl)amino)methyl)-9-fluoro-3-methyl-10-(3-(methylamino)piperidin-1-yl)-2H-[1,4]oxazino[2,3,4-ij]quinolin-7(3H)-one Hydrochloride]",12.1
13,"COc1cc(CN(Cc2cn3c4c(c(N5CCCCC5)c(F)cc4c2=O)OCC3C)[C@H]2CCCN(c3ccc(N)nc3)C2)ccn1 (stereo partly drawn) [Compound 28, 6-((((S)-1-(6-aminopyridin-3-yl)piperidin-3-yl)((2-methoxypyridin-4-yl)methyl)amino)methyl)-9-fluoro-3-methyl-10-(piperidin-1-yl)-2H-[1,4]oxazino[2,3,4-ij]quinolin-7(3H)-one]",1530.0
14,"COc1cc(CN(Cc2cn3c4c(c(F)c(F)cc4c2=O)OCC3C)[C@H]2CCN(c3ccc(N)nc3)C2)ccn1 (stereo partly drawn) [Compound 15, 6-((((S)-1-(6-aminopyridin-3-yl)pyrrolidin-3-yl)((2-methoxypyridin-4-yl)methyl)amino)methyl)-9,10-difluoro-3-methyl-2H-[1,4]oxazino[2,3,4-ij]quinolin-7(3H)-one]",5.8
15,"COc1cc(CN(Cc2cn3c4c(c(F)c(F)cc4c2=O)OCC3C)[C@H]2CCCN(c3ccc(NC(C)=O)nc3)C2)ccn1 (stereo partly drawn) [Compound 7, N-(5-((3S)-3-(((9,10-difluoro-3-methyl-7-oxo-3,7-dihydro-2H-[1,4]oxazino[2,3,4-ij]quinolin-6-yl)methyl)((2-methoxypyridin-4-yl)methyl)amino)piperidin-1-yl)pyridin-2-yl)acetamide]",65.3
16,"COc1cc(CN(Cc2cn3c4c(c(N5CCN(C)C(C)C5)c(F)cc4c2=O)OCC3C)[C@H]2CCCN(c3ccc(N)nc3)C2)ccn1 (stereo partly drawn) [Compound 32, 6-((((S)-1-(6-aminopyridin-3-yl)piperidin-3-yl)((2-methoxypyridin-4-yl)methyl)amino)methyl)-10-(3,4-dimethylpiperazin-1-yl)-9-fluoro-3-methyl-2H-[1,4]oxazino[2,3,4-ij]quinolin-7(3H)-one]",814.9
17,"COc1ccc(CN(Cc2cn3c4c(c(F)c(F)cc4c2=O)OCC3)[C@H]2CCCN(c3ccc(N)nc3)C2)c(OC)c1 [Compound 73, (S)-6-(((1-(6-aminopyridin-3-yl)piperidin-3-yl)(2,4-dimethoxybenzyl)amino)methyl)-9,10-difluoro-2,3-dihydro-7H-[1,4]oxazino[2,3,4-ij]quinolin-7-one]",7.9
18,"COc1cc(CN(Cc2cn3c4c(c(N5CC6(COC6)C5)c(F)cc4c2=O)OCC3C)[C@H]2CCCN(c3ccc(N)nc3)C2)ccn1 (stereo partly drawn) [Compound 30, 6-((((S)-1-(6-aminopyridin-3-yl)piperidin-3-yl)((2-methoxypyridin-4-yl)methyl)amino)methyl)-9-fluoro-3-methyl-10-(2-oxa-6-azaspiro[3.3]heptan-6-yl)-2H-[1,4]oxazino[2,3,4-ij]quinolin-7(3H)-one]",986.1
19,"COc1cc(CN(Cc2cn3c4c(c(N5CCN(C)CC5)c(F)cc4c2=O)OCC3C(C)C)[C@H]2CCCN(c3ccc(N)nc3)C2)ccn1 (stereo partly drawn) [Compound 96, 6-((((S)-1-(6-aminopyridin-3-yl)piperidin-3-yl)((2-methoxypyridin-4-yl)methyl)amino)methyl)-9-fluoro-3-isopropyl-10-(4-methylpiperazin-1-yl)-2,3-dihydro-7H-[1,4]oxazino[2,3,4-ij]quinolin-7-one]",451.1
20,"COc1cc(CCN(Cc2cn3c4c(c(F)c(F)cc4c2=O)OCC3C)[C@H]2CCCN(c3ccc(N)nc3)C2)ccn1 (stereo partly drawn) [Compound 8, 6-((((S)-1-(6-aminopyridin-3-yl)piperidin-3-yl)(2-(2-methoxypyridin-4-yl)ethyl)amino)methyl)-9,10-difluoro-3-methyl-2H-[1,4]oxazino[2,3,4-ij]quinolin-7(3H)-one]",5.7
